How the values were obtained:
Assay type in all cases: in vivo
[1] = tested on: 3rd-instar larvae of Spodoptera frugiperda; test: Joint toxicity of I-72 + indoxacarb, corn leaf dipping, Example 3, Table 3; settings: Spodoptera frugiperda, foliar, 72 h, A = compound I-72, B = indoxacarb, read-out: LC50
From the text: Test subject: 3rd-instar larvae of Spodoptera frugiperda, a sensitive strain reared indoors.
Experimental method: the dipping method was adopted. The corn leaves cultivated in the greenhouse were taken, cut into leaf segments of 5 cm long, dipped in the prepared pesticide solution for 10 s, and then cut into small pieces of 1.5 cm×1.5 cm after natural air-drying in the shade. These pieces were placed in a 24-well culture plate, and the standard test insects were introduced, with 48 insects for each treatment. The treated test insects were placed in an observation room under certain conditions. The reaction of the test insects was regularly observed, and the number of dead and live insects was investigated 72 h later.
The test conditions, the preparation method of the pesticide solution, and the evaluation method (Sun Y-P) for the joint action type of the mixture were the same as those in Example 1.

[2] = tested on: 3rd-instar larvae of Spodoptera exigua Hübner; test: Joint toxicity of I-72 + emamectin benzoate, leaf-disk dipping, Example 9, Table 9; settings: Spodoptera exigua, cabbage leaf-disk dipping, 72 h, A = compound I-72, B = emamectin benzoate, read-out: LC50
From the text: Test subject: 3rd-instar larvae of Spodoptera exigua Hübner, a sensitive strain reared indoors.
Experimental method: the dipping method was adopted. The cabbage leaves cultivated in the greenhouse were taken, the surface wax layer was removed, and leaf disks with a diameter of 3 cm were made with a puncher. The leaf disks were dipped in the prepared pesticide solution for 10 s, and then put into a 9-cm-diameter Petri dish lined with filter paper. After natural air-drying in the shade, the standard test insects were introduced, with 10 insects placed in each dish and 3 replicates performed. The treated test insects were placed in an observation room under certain conditions. The reaction of the test insects was regularly observed, and the number of dead and live insects was investigated 72 h later.
The test conditions, the preparation of the pesticide solution and the evaluation method were the same as those in Example 1.

[3] = tested on: 3rd-instar larvae of Yponomeuta evonymallus (Linnaeus); test: Joint toxicity of I-72 + thiamethoxam, Example 66, Table 66; settings: A = compound I-72, B = thiamethoxam; leaf dipping; 72 hours
Procedure: Test target: 3rd-instar larvae of Yponomeuta evonymallus (Linnaeus).
(§1) Preparation of the pesticide solution: according to different test requirements, the test samples were accurately weighed respectively with an electronic analytical balance. The technical pesticides were dissolved in acetone, and then diluted with 0.1% Tween 80 water into a series of pesticide solutions with a certain concentration gradient according to the experimental design dosage.
Experimental method: first, Hylotelephium spectabile leaves were selected and dipped in the prepared pesticide solution for 10 s in the order from low dosage to high dosage according to the experimental design. After natural air-drying in the shade, they were placed in a 9-cm-diameter Petri dish with filter paper, and uniform and healthy test insects were introduced, with 10 insects for each treatment and 3 replicates for each treatment. In addition, a blank control was set up.
(§2) The treated test materials were placed in an observation room, and the temperature, humidity and illumination of the observation room could be adjusted as needed. The number of dead and live insects was investigated 72 hours later.

[4] = tested on: Nilaparvata lugens (Stal) nymphs; test: Joint toxicity of I-72 + triflumezopyrim, Example 75, Table 75; settings: Nilaparvata lugens; A = compound I-72, B = triflumezopyrim; potted-seedling spraying; 72 hours; read-out: LC50
Procedure: Test target: Nilaparvata lugens (Stal) nymphs, a sensitive strain reared indoors.
as §1
Experimental method: the activity of the mixture against the Nilaparvata lugens (Stal) nymphs was determined by adopting the potted-seedling spraying method. First, rice seedlings were planted in culture pots. Uniform spraying was performed with the pesticide solution in the order from low dosage to high dosage according to the experimental design, with 2 mL for each seedling. Then, Nilaparvata lugens nymphs of uniform size were transferred onto the rice seedlings, with 3 replicates for each treatment. In addition, a blank control was set up.
as §2, with “later. […] Then, the co-toxicity coefficient of each ratio was calculated using the Sun Y-P method to evaluate the mixing effect (the same as in Example 1).” for “later.”

[5] = tested on: adult Tetranychus urticae Koch; test: Joint toxicity of I-72 + cyetpyrafen, Example 85, Table 85; settings: Tetranychus urticae; A = compound I72, B = cyetpyrafen; potted-seedling spraying; 72 hours; read-out: LC50
Procedure: Test target: adult Tetranychus urticae Koch, a sensitive strain reared indoors.
as §1
Experimental method: the activity of the mixture against the adult Tetranychus urticae Koch was determined by adopting the potted-seedling spraying method. First, the adult Tetranychus urticae Koch of uniform size were transferred onto the leaves of kidney bean seedlings at the stage when the first pair of true leaves was fully expanded. After the adult mites had stabilized, the base number was counted. Then, the uniform spraying was performed with the pesticide solution in the order from low to high dose according to the experimental design, with 1.5 mL for each seedling and 3 replicates for each treatment. […]
The treated test materials were placed in an observation room, and the temperature, humidity and illumination of the observation room could be adjusted as needed. […] Then, the co-toxicity coefficient of each ratio was calculated using the Sun Y-P method to evaluate the mixing effect (the same as in Example 1).

CN(C(=O)c1ccc2c(c1)OC(F)(F)O2)c1cccc(C(=O)Nc2c(Br)cc(C(F)(C(F)(F)F)C(F)(F)F)cc2OC(F)F)c1F [Compound I-72]
LC50 [1]: 0.0737 µg/mL | LC50 [2]: 0.241 µg/mL | LC50 [3]: 4.5752 µg/mL | LC50 [4]: 285 µg/mL | LC50 [5]: 40.4 µg/mL

From patent publication US20260198495A1, “BINARY INSECTICIDE COMPOSITION AND USE THEREOF” (SHENYANG SINOCHEM AGROCHEMICALS R & D CO., LTD., priority 2022, published 2026)
